# Measurements from ChEMBL document CHEMBL4251574, “Design, synthesis, and biological evaluation of new 1,2,3-triazolo-2'-deoxy-2'-fluoro- 4'-azido nucleoside derivatives as potent anti-HBV agents” (Eur J Med Chem, 2018).
# Assays:
# Assay type in all cases: functional
# Hepatitis B virus [1] = test: Antiviral activity against Hepatitis B virus infected in human HepG2.2.15 cells assessed as inhibition of intracellular HBV DNA level at 5 uM measured on day 9 by FQ-PCR analysis; conditions: HepG2.2.15, 216 h
# Duck hepatitis B virus [2] = test: Antiviral activity against DHBV infected in duck assessed as inhibition of viral DNA level in serum at 0.04 mg/kg, po administered once daily measured on day 15 by SYBR Green I dye-based FQ-PCR analysis relative to control; conditions: 360 h
# Hepatitis B virus [3] = test: Antiviral activity against Hepatitis B virus infected in human HepG2.2.15 cells assessed as inhibition of intracellular HBV DNA level at 0.2 uM measured on day 6 by FQ-PCR analysis; conditions: HepG2.2.15, 144 h
# Hepatitis B virus [4] = test: Antiviral activity against Hepatitis B virus infected in human HepG2.2.15 cells assessed as inhibition of intracellular HBV DNA level at 0.2 uM measured on day 9 by FQ-PCR analysis; conditions: HepG2.2.15, 216 h
# Hepatitis B virus [5] = test: Antiviral activity against Hepatitis B virus harboring rtV173L/L180M/M204V mutant infected in HepGRL1 cells assessed as inhibition of intracellular HBV DNA level at 0.2 uM measured on day 9 by FQ-PCR analysis relative to control; conditions: 216 h
# Hepatitis B virus [6] = test: Antiviral activity against Hepatitis B virus infected in human HepG2.2.15 cells assessed as inhibition of HBeAg secretion at 5 uM after 9 days by ELISA relative to control; conditions: HepG2.2.15, 216 h
# Duck hepatitis B virus [7] = test: Antiviral activity against DHBV infected in duck assessed as inhibition of viral DNA level in liver at 0.04 mg/kg, po administered once daily measured on day 15 by SYBR Green I dye-based FQ-PCR analysis relative to control; conditions: 360 h
# Hepatitis B virus [8] = test: Antiviral activity against Hepatitis B virus harboring rtV173L/L180M/M204V mutant infected in HepGRL1 cells assessed as inhibition of intracellular HBV DNA level at 0.2 uM measured on day 6 by FQ-PCR analysis relative to control; conditions: 144 h
# Duck hepatitis B virus [9] = test: Antiviral activity against DHBV infected in duck assessed as inhibition of viral DNA level in liver at 0.2 mg/kg, po administered once daily measured on day 10 by SYBR Green I dye-based FQ-PCR analysis relative to control; conditions: 240 h
# Duck hepatitis B virus [10] = test: Antiviral activity against DHBV infected in duck assessed as inhibition of viral DNA level in liver at 0.2 mg/kg, po administered once daily measured on day 15 by SYBR Green I dye-based FQ-PCR analysis relative to control; conditions: 360 h
# Duck hepatitis B virus [11] = test: Antiviral activity against DHBV infected in duck assessed as inhibition of viral DNA level in serum at 1 mg/kg, po administered once daily measured on day 15 by SYBR Green I dye-based FQ-PCR analysis relative to control; conditions: 360 h
# Hepatitis B virus [12] = test: Antiviral activity against Hepatitis B virus infected in human HepG2.2.15 cells assessed as inhibition of HBsAg secretion at 5 uM after 9 days by ELISA relative to control; conditions: HepG2.2.15, 216 h
# HepG2 2.2.15 = test: Cytotoxicity against human HepG2.2.15 cells after 9 days by MTT assay; conditions: HepG2 2.2.15, 216 h
# Hepatitis B virus [13] = test: Antiviral activity against Hepatitis B virus harboring rtV173L/L180M/M204V mutant infected in HepGRL1 cells assessed as inhibition of intracellular HBV DNA level at 5 uM measured on day 9 by FQ-PCR analysis relative to control; conditions: 216 h
# Hepatitis B virus [14] = test: Antiviral activity against Hepatitis B virus harboring rtV173L/L180M/M204V mutant infected in HepGRL1 cells assessed as inhibition of intracellular HBV DNA level at 5 uM measured on day 6 by FQ-PCR analysis relative to control; conditions: 144 h
# Hepatitis B virus [15] = test: Antiviral activity against Hepatitis B virus infected in human HepG2.2.15 cells assessed as inhibition of intracellular HBV DNA level at 1 uM measured on day 9 by FQ-PCR analysis; conditions: HepG2.2.15, 216 h
# Duck hepatitis B virus [16] = test: Antiviral activity against DHBV infected in duck assessed as inhibition of viral DNA level in liver at 0.04 mg/kg, po administered once daily measured on day 10 by SYBR Green I dye-based FQ-PCR analysis relative to control; conditions: 240 h
# Hepatitis B virus [17] = test: Antiviral activity against Hepatitis B virus harboring rtV173L/L180M/M204V mutant infected in HepGRL1 cells assessed as inhibition of intracellular HBV DNA level at 1 uM measured on day 6 by FQ-PCR analysis relative to control; conditions: 144 h
# Duck hepatitis B virus [18] = test: Antiviral activity against DHBV infected in duck assessed as inhibition of viral DNA level in liver at 1 mg/kg, po administered once daily measured on day 15 by SYBR Green I dye-based FQ-PCR analysis relative to control; conditions: 360 h
# Duck hepatitis B virus [19] = test: Antiviral activity against DHBV infected in duck assessed as inhibition of viral DNA level in serum at 0.04 mg/kg, po administered once daily measured on day 10 by SYBR Green I dye-based FQ-PCR analysis relative to control; conditions: 240 h
# Hepatitis B virus [20] = test: Antiviral activity against Hepatitis B virus infected in human HepG2.2.15 cells assessed as inhibition of intracellular HBV DNA level at 5 uM measured on day 6 by FQ-PCR analysis; conditions: HepG2.2.15, 144 h
# Hepatitis B virus [21] = test: Antiviral activity against Hepatitis B virus infected in human HepG2.2.15 cells assessed as inhibition of intracellular HBV DNA level at 1 uM measured on day 6 by FQ-PCR analysis; conditions: HepG2.2.15, 144 h
# Hepatitis B virus [22] = test: Antiviral activity against Hepatitis B virus harboring rtV173L/L180M/M204V mutant infected in HepGRL1 cells assessed as inhibition of intracellular HBV DNA level at 1 uM measured on day 9 by FQ-PCR analysis relative to control; conditions: 216 h
# Duck hepatitis B virus [23] = test: Antiviral activity against DHBV infected in duck assessed as inhibition of viral DNA level in serum at 1 mg/kg, po administered once daily measured on day 10 by SYBR Green I dye-based FQ-PCR analysis relative to control; conditions: 240 h
# Duck hepatitis B virus [24] = test: Antiviral activity against DHBV infected in duck assessed as inhibition of viral DNA level in liver at 1 mg/kg, po administered once daily measured on day 10 by SYBR Green I dye-based FQ-PCR analysis relative to control; conditions: 240 h
# Duck hepatitis B virus [25] = test: Antiviral activity against DHBV infected in duck assessed as inhibition of viral DNA level in serum at 0.2 mg/kg, po administered once daily measured on day 15 by SYBR Green I dye-based FQ-PCR analysis relative to control; conditions: 360 h
# Duck hepatitis B virus [26] = test: Antiviral activity against DHBV infected in duck assessed as inhibition of viral DNA level in serum at 0.2 mg/kg, po administered once daily measured on day 10 by SYBR Green I dye-based FQ-PCR analysis relative to control; conditions: 240 h
# Hepatitis B virus [27] = test: Antiviral activity against Hepatitis B virus infected in human HepG2.2.15 cells assessed as inhibition of intracellular HBV DNA level at 20 uM measured on day 9 by FQ-PCR analysis; conditions: HepG2.2.15, 216 h
# Hepatitis B virus [28] = test: Antiviral activity against Hepatitis B virus infected in human HepG2.2.15 cells assessed as intracellular HBV DNA levels at 20 uM measured on day 6 by FQ-PCR analysis; conditions: HepG2.2.15, 144 h
# Hepatitis B virus [29] = test: Antiviral activity against Hepatitis B virus infected in human HepG2.2.15 cells assessed as inhibition of HBeAg secretion at 20 uM after 9 days by ELISA relative to control; conditions: HepG2.2.15, 216 h
# Duck hepatitis B virus [30] = test: Antiviral activity against DHBV infected in duck assessed as inhibition of viral DNA level in liver at 10 mg/kg, po administered once daily measured on day 10 by SYBR Green I dye-based FQ-PCR analysis relative to control; conditions: 240 h
# Hepatitis B virus [31] = test: Antiviral activity against Hepatitis B virus harboring rtV173L/L180M/M204V mutant infected in HepGRL1 cells assessed as inhibition of intracellular HBV DNA level at 20 uM measured on day 9 by FQ-PCR analysis relative to control; conditions: 216 h
# Hepatitis B virus [32] = test: Antiviral activity against Hepatitis B virus harboring rtV173L/L180M/M204V mutant infected in HepGRL1 cells assessed as inhibition of intracellular HBV DNA level at 20 uM measured on day 6 by FQ-PCR analysis relative to control; conditions: 144 h
# Duck hepatitis B virus [33] = test: Antiviral activity against DHBV infected in duck assessed as inhibition of viral DNA level in liver at 10 mg/kg, po administered once daily measured on day 15 by SYBR Green I dye-based FQ-PCR analysis relative to control; conditions: 360 h
# Duck hepatitis B virus [34] = test: Antiviral activity against DHBV infected in duck assessed as inhibition of viral DNA level in serum at 10 mg/kg, po administered once daily measured on day 15 by SYBR Green I dye-based FQ-PCR analysis relative to control; conditions: 360 h
# Hepatitis B virus [35] = test: Antiviral activity against Hepatitis B virus infected in human HepG2.2.15 cells assessed as inhibition of HBsAg secretion at 20 uM after 9 days by ELISA relative to control; conditions: HepG2.2.15, 216 h
# Duck hepatitis B virus [36] = test: Antiviral activity against DHBV infected in duck assessed as inhibition of viral DNA level in serum at 10 mg/kg, po administered once daily measured on day 10 by SYBR Green I dye-based FQ-PCR analysis relative to control; conditions: 240 h
structure (smiles),measurement,setting,value
[N-]=[N+]=N[C@]1(CO)O[C@@H](n2cc(C(N)=O)nn2)[C@@H](F)[C@@H]1O,inhibition at 5 µM,Hepatitis B virus [1],57.1%
same,inhibition in vivo at 0.04 mg/kg,Duck hepatitis B virus [2],35.7%
same,inhibition at 0.2 µM,Hepatitis B virus [3],13.1%
same,inhibition at 0.2 µM,Hepatitis B virus [4],34.7%
same,inhibition at 0.2 µM,Hepatitis B virus [5],28.2%
same,inhibition at 5 µM,Hepatitis B virus [6],21.9%
same,inhibition in vivo at 0.04 mg/kg,Duck hepatitis B virus [7],12.2%
same,inhibition at 0.2 µM,Hepatitis B virus [8],15.8%
same,inhibition in vivo at 0.2 mg/kg,Duck hepatitis B virus [9],21.4%
same,inhibition in vivo at 0.2 mg/kg,Duck hepatitis B virus [10],24.4%
same,inhibition in vivo at 1 mg/kg,Duck hepatitis B virus [11],67.9%
same,inhibition at 5 µM,Hepatitis B virus [12],45.3%
same,CC50,HepG2 2.2.15,526 µM
same,inhibition at 5 µM,Hepatitis B virus [13],64.1%
same,inhibition at 5 µM,Hepatitis B virus [14],49.2%
same,inhibition at 1 µM,Hepatitis B virus [15],51%
same,inhibition in vivo at 0.04 mg/kg,Duck hepatitis B virus [16],7.1%
same,inhibition at 1 µM,Hepatitis B virus [17],27.5%
same,inhibition in vivo at 1 mg/kg,Duck hepatitis B virus [18],53.7%
same,inhibition in vivo at 0.04 mg/kg,Duck hepatitis B virus [19],8.7%
same,inhibition at 5 µM,Hepatitis B virus [20],42.6%
same,inhibition at 1 µM,Hepatitis B virus [21],39.3%
same,inhibition at 1 µM,Hepatitis B virus [22],52.4%
same,inhibition in vivo at 1 mg/kg,Duck hepatitis B virus [23],56.5%
same,inhibition in vivo at 1 mg/kg,Duck hepatitis B virus [24],50%
same,inhibition in vivo at 0.2 mg/kg,Duck hepatitis B virus [25],39.3%
same,inhibition in vivo at 0.2 mg/kg,Duck hepatitis B virus [26],26.1%
[N-]=[N+]=N[C@]1(CO)O[C@@H](n2cc(CO)nn2)[C@@H](F)[C@@H]1O,inhibition at 5 µM,Hepatitis B virus [6],10.8%
same,inhibition at 5 µM,Hepatitis B virus [12],21.5%
same,CC50,HepG2 2.2.15,> 1000 µM
Nc1ccn([C@@H]2CS[C@H](CO)O2)c(=O)n1 [LAMIVUDINE],inhibition at 20 µM,Hepatitis B virus [27],85.7%
same,inhibition at 20 µM,Hepatitis B virus [28],75.4%
same,inhibition at 20 µM,Hepatitis B virus [29],22.1%
same,inhibition in vivo at 10 mg/kg,Duck hepatitis B virus [30],57.1%
same,inhibition at 20 µM,Hepatitis B virus [31],12.9%
same,inhibition at 20 µM,Hepatitis B virus [32],10.8%
same,inhibition in vivo at 10 mg/kg,Duck hepatitis B virus [33],75.6%
same,CC50,HepG2 2.2.15,> 1000 µM
same,inhibition in vivo at 10 mg/kg,Duck hepatitis B virus [34],85.7%
same,inhibition at 20 µM,Hepatitis B virus [35],47.7%
same,inhibition in vivo at 10 mg/kg,Duck hepatitis B virus [36],65.2%
[N-]=[N+]=N[C@]1(CO)O[C@@H](n2cc(C3CC3)nn2)[C@@H](F)[C@@H]1O,inhibition at 5 µM,Hepatitis B virus [6],26.2%
same,inhibition at 5 µM,Hepatitis B virus [12],28.9%
same,CC50,HepG2 2.2.15,> 1000 µM
